According to ChEMBL document CHEMBL1772944, “Homoflavonoid glucosides from Ophioglossum pedunculosum and their anti-HBV activity” (J Nat Prod, 2011):

Test system: not listed separately
Experiment: Cytotoxicity against human HepG2(2.2.15) cells after 8 days by MTT assay
Type: cell-based
O=c1c(CO)c(-c2ccc(O[C@@H]3O[C@H](CO)[C@@H](O)[C@H](O)[C@H]3O)c(O)c2)oc2cc(O)cc(O)c12 showed a CC50 at 192 h of 19.7 µM. For COc1c(-c2ccc(O[C@@H]3O[C@H](CO)[C@@H](O)[C@H](O)[C@H]3O)c(O)c2)oc2cc(O[C@@H]3O[C@H](CO)[C@@H](O)[C@H](O)[C@H]3O)cc(O)c2c1=O, the CC50 at 192 h was 7.9 µM. For COc1c(-c2ccc(O)c(O)c2)oc2cc(O)cc(O)c2c1=O [3-O-METHYLQUERCETIN], the CC50 at 192 h was 2.1 µM. Nc1ccn([C@@H]2CS[C@H](CO)O2)c(=O)n1 [LAMIVUDINE] gave a CC50 at 192 h of 2400 µM. For O=c1c2c(oc3cc(O)cc(O)c13)-c1ccc(O)c(O)c1CO2 [OPHIOGLONIN], the CC50 at 192 h was 20.4 µM. Work on O=c1c(CO)c(-c2ccc(O[C@@H]3O[C@H](CO)[C@@H](O)[C@H](O)[C@H]3O)c(O)c2)oc2cc(O[C@@H]3O[C@H](CO)[C@@H](O)[C@H](O)[C@H]3O[C@@H]3O[C@H](CO)[C@@H](O)[C@H](O)[C@H]3O)cc(O)c12 [PEDUNCULOSUMOSIDE E] yielded a CC50 at 192 h of over 100 µM. For O=c1c(CO)c(-c2ccc(O[C@@H]3O[C@H](CO)[C@@H](O)[C@H](O)[C@H]3O)c(O)c2)oc2cc(O[C@@H]3O[C@H](CO)[C@@H](O)[C@H](O)[C@H]3O)cc(O)c12 [PEDUNCULOSUMOSIDE F], the CC50 at 192 h was 56.7 µM. Compound O=c1c(O)c(-c2ccc(O)c(O)c2)oc2cc(O)cc(O)c12 [QUERCETIN] has a CC50 at 192 h of 38.1 µM. COc1c(-c2ccc(O)c(O)c2)oc2cc(O[C@@H]3O[C@H](CO)[C@@H](O)[C@H](O)[C@H]3O)cc(O)c2c1=O [TRANSILIN] showed a CC50 at 192 h of 5.4 µM.

Test system: Hepatitis B virus
Experiment: Antiviral activity against HBV transfected in human HepG2(2.2.15) cells assessed as inhibition of HBsAg secretion by ELISA
Type: functional, organism-based
Nc1ccn([C@@H]2CS[C@H](CO)O2)c(=O)n1 [LAMIVUDINE] showed an IC50 of 58 µM.
